Results on one compound are retold here after paper PMC6213981, “Crystal structures and kinetics of N-acetylneuraminate lyase from Fusobacterium nucleatum” (Acta Crystallographica. Section F, Structural Biology …, 2018).

The target of this experiment is T1, FnNanA (Fusobacterium nucleatum, UniProt Q8RDN6).
T1 construct: gene nanA; pET300/NT-DEST, synthetic DNA, E. coli BL21 (DE3); tetramer
T1 sequence (Q8RDN6 1-290): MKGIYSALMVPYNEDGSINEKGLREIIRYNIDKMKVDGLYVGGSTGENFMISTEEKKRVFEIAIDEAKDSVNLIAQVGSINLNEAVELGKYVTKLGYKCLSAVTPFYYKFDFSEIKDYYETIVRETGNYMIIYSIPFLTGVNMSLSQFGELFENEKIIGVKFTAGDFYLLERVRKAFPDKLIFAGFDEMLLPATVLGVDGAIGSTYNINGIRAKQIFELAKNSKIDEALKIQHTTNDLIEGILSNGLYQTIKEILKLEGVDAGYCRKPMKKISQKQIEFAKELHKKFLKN
The experiment can be described thus: X-ray crystal structure, […] Å. In kind it is binding. Particulars: covalent; Schiff base with Lys161 in active site; crystallised at pH 9.5, 277 K.

`CC(=O)C(=O)O` [pyruvate]: the “X-ray crystal structure, 1.76 Å” value is listed as “N∊ atom of Lys161 is conjugated as a Schiff base to the C2 atom of pyruvate”.
